Reference: patent publication US20210369720A1, “SYNERGISTIC COMPOSITION HAVING NEUROPROTECTIVE PROPERTIES AND METHODS OF USE THEREOF” (Rutgers, The State University of New Jersey, priority 2018, published 2021)

Experiments:
p-α-Syn = experiment: Western blot of p-α-Syn in SH-SY5Y cells challenged with α-Syn PFF; assay type: cell-based, Human; conditions: SH-SY5Y cells challenged with mouse α-Syn PFF for 7 days; caffeine and/or EHT added to the medium
Experimental: (§1) Human neuroblastoma SH-SY5Y cells were cultured in DMEM-F12 with 10% FBS. At 50% confluency, cells were treated with 1 gg/ml mouse α-Syn PFF in DMEM-F12 with 1% FBS for 7 days. Medium was refreshed every 3 days. Cell harvesting was done with 2% SDS in PBS supplemented with protease inhibitor (Millipore) and phosphatase inhibitor (Sigma-Aldrich). Lysates were sonicated and boiled at 95° C. for 5 minutes. Protein concentration was determined by bicinchonic acid (BCA) method (Pierce), equal amount of protein was separated on 5-20% SDS-PAGE gel (Genescript) and transferred to nitrocellulose or PVDF membrane (Biorad). Following transfer, membranes were blocked for 1 hour at room temperature in blocking buffer (Li-Cor) or 5% (w/v) BSA/TBS-Tween 0.1% (v/v). Primary antibodies were diluted in blocking buffer or 5% (w/v) BSA/TBS-Tween 0.1% (v/v) and incubated with the membranes at 4° C. overnight. Membranes were washed three times in TBS-Tween and incubated in diluted IRDye 800CW or HRP conjugated secondary antibody for 1 hour at room temperature. Following washing, membranes were scanned by Li-Cor Odyssey CLx infrared imaging system or treated with the Western Lightning ECL-plus reagents (PerkinElmer) and exposed to autoradiography films (LabScientific).

Syn^Tg mice [1] = experiment: Morris Water Maze, Syn^Tg mice; assay type: in vivo; conditions: EHT 12 mg/kg/day in chow and/or caffeine 50 mg/kg/day in drinking water from weaning until six months of age, vs untreated Syn^Tg mice
Excerpt: (§2) Thy1-α-synuclein transgenic mice (Syn^Tg) on BDF1 background overexpressing human wild-type α-synuclein under the control of the Thy1 promoter were maintained by mating heterozygous transgenic females with WT BDF1 males (Rockenstein E, et al. (2002) Differential neuropathological alterations in transgenic mice expressing alpha-synuclein from the platelet-derived growth factor and Thy-1 promoters. J Neurosci Res 68(5):568-578). BDF1 mice (mixed C57BL/6-DBA/2) were generated every three months by mating female C57BL/6 (The Jackson Laboratory) and male DBA/2 mice (Charles River). Experiments were performed with male transgenic mice and their WT littermates. […] Wild-type littermates received regular water and control chow. […] At two months of age, mice were inoculated with α-Syn PFF unilaterally in the striatum. These treatments continued throughout the experiment until animals were sacrificed. Mice were weighed and their food and water intake was quantified weekly. Animals were housed 2-5/cage in an AAALAC approved facility in a temperature- and humidity-controlled environment under a 12-hour light/dark cycle and were maintained on a diet of lab chow and water ad libitum. […]

GFAP = experiment: Immunohistochemical staining of GFAP in the cortex, Syn^Tg mice; assay type: in vivo; conditions: EHT 12 mg/kg/day and/or caffeine 50 mg/kg/day until six months of age
Excerpt: Neuroinflammation is one of the neuropathological features of PD and models of α-synucleinopathy including Syn^Tg mice (Lee K W, et al. (2011) Enhanced phosphatase activity attenuates alpha-synucleinopathy in a mouse model. J Neurosci 31(19):6963-6971).
Thy1-α-synuclein transgenic mice (Syn^Tg) on BDF1 background overexpressing human wild-type α-synuclein under the control of the Thy1 promoter were maintained by mating heterozygous transgenic females with WT BDF1 males (Rockenstein E, et al. (2002) Differential neuropathological alterations in transgenic mice expressing alpha-synuclein from the platelet-derived growth factor and Thy-1 promoters. J Neurosci Res 68(5):568-578). BDF1 mice (mixed C57BL/6-DBA/2) were generated every three months by mating female C57BL/6 (The Jackson Laboratory) and male DBA/2 mice (Charles River). Experiments were performed with male transgenic mice and their WT littermates. […] Wild-type littermates received regular water and control chow. […] Mice were weighed and their food and water intake was quantified weekly. […]
(§3) Vectastain elite ABC kit (Vector Laboratories, Burlingame, Calif.) and 3,3′-diaminobenzidine (Sigma-Aldrich) were used for amplifying and color development. […] For other stains, the whole microscopic field was analyzed. For p-α-Syn stains in the cortex, four matching regions in each of two sections per animal were counted.

PP2A = experiment: Western blot of PP2A methylation, striatal tissue lysates of Syn^Tg mice; assay type: in vivo; conditions: EHT 12 mg/kg/day and/or caffeine 50 mg/kg/day
Excerpt: Thy1-α-synuclein transgenic mice (Syn^Tg) on BDF1 background overexpressing human wild-type α-synuclein under the control of the Thy1 promoter were maintained by mating heterozygous transgenic females with WT BDF1 males (Rockenstein E, et al. (2002) Differential neuropathological alterations in transgenic mice expressing alpha-synuclein from the platelet-derived growth factor and Thy-1 promoters. J Neurosci Res 68(5):568-578). BDF1 mice (mixed C57BL/6-DBA/2) were generated every three months by mating female C57BL/6 (The Jackson Laboratory) and male DBA/2 mice (Charles River). Experiments were performed with male transgenic mice and their WT littermates. […] Wild-type littermates received regular water and control chow. […] At two months of age, mice were inoculated with α-Syn PFF unilaterally in the striatum. These treatments continued throughout the experiment until animals were sacrificed. Mice were weighed and their food and water intake was quantified weekly. Animals were housed 2-5/cage in an AAALAC approved facility in a temperature- and humidity-controlled environment under a 12-hour light/dark cycle and were maintained on a diet of lab chow and water ad libitum. All animal procedures were approved by the Rutgers-Robert Wood Johnson Medical School Institutional Animal Care and Use Committee and were performed according to the National Institutes of Health Guide for the Care and Use of Laboratory Animals.
as §1

Syn^Tg mice [2] = experiment: Nesting behavior, Syn^Tg mice; assay type: in vivo; conditions: EHT 12 mg/kg/day in chow and/or caffeine 50 mg/kg/day in drinking water from weaning until six months of age, vs untreated Syn^Tg mice
Excerpt: as §2

Syn^Tg mice [3] = experiment: Rotarod, Syn^Tg mice; assay type: in vivo; conditions: EHT 12 mg/kg/day in chow and/or caffeine 50 mg/kg/day in drinking water from weaning until six months of age, vs untreated Syn^Tg mice
Excerpt: as §2

c-fos = experiment: Immunohistochemical staining of c-fos in the hippocampus, Syn^Tg mice; assay type: in vivo; conditions: EHT 12 mg/kg/day and/or caffeine 50 mg/kg/day until six months of age
Excerpt: as §2, with “weekly.” for “weekly. Animals were housed 2-5/cage in an AAALAC approved facility in a temperature- and humidity-controlled environment under a 12-hour light/dark cycle and were maintained on a diet of lab chow and water ad libitum.”
as §3

[4] = system: α-Syn PFF inoculated WT mice; experiment: Wire Hang test, α-Syn PFF inoculated WT mice; assay type: in vivo; conditions: EHT 12 mg/kg/day in diet and/or caffeine 50 mg/kg/day in drinking water from weaning, 6 months post-inoculation
Excerpt: as §2

SMILES: CCCCCCCCCCCCCCCCCCCC(=O)NCCc1c[nH]c2ccc(O)cc12 [EHT, eicosanoyl-5-hydroxytryptamide]
- p-α-Syn levels (p-α-Syn): reduced it partially
- performance on the Morris Water Maze (Syn^Tg mice [1]): did not improve performance
- astrocytic proliferation (GFAP) in the cortex (GFAP): partially but insignificantly attenuated
- ratio between methyl- and demethyl-PP2A (PP2A): did not change
- Demethylated PP2A (demethyl-PP2A) levels (PP2A; normalized to total PP2A): not affected
- Methylated PP2A (Methyl-PP2A) levels (PP2A; normalized to total PP2A): did not change
- nesting behavior (Syn^Tg mice [2]): did not improve performance
- performance on the rotarod (Syn^Tg mice [3]): did not improve performance
- c-fos immunoreactivity in the hippocampus (c-fos): failed to increase c-fos immunoreactivity significantly
- performance on the wire hang test [4]: improved performance
